The test system of test [1] is MC38 murine colon carcinoma cells. The conditions noted are these: for Median TTE: endpoint 1000 mm^3, 53 days; for Regressions CR: number of complete regressions; for Regressions PR: number of partial regressions; for Regressions TFS: tumor free survivors.
The subject of test [2] is CD8+ T cells, macrophages, dendritic cells. In words: Immune cells in tumors and spleens of treated mice. Format: in vivo. From the text: The combination therapy of the invention provides many beneficial and unexpected therapeutic effects as evidenced by mice treated with SEQ ID NO: 2, the murine surrogate for SEQ ID NO: 1.
Test [3] relates to CD8+T cells, NK cells, Tregs. Conditions: first in human clinical data, U.S. Patent Publication Number 20210038684A1; cited from earlier work.
Setting [4] is: Group 2: Lenvatinib 10 mg/kg po qd × 28 (vehicle 1 sc).
Where [5] appears, read: Group 2: Lenvatinib 10 mg/kg po qd × 28.
The mark [6] stands for this setting: Group 3: Lenvatinib 30 mg/kg po qd × 28 (vehicle 1 sc).
[7] abbreviates: Group 3: Lenvatinib 30 mg/kg po qd × 28.
[8] abbreviates: Group 4: Lenvatinib 100 mg/kg po qd × 28 (vehicle 1 sc).
[9] abbreviates: Group 4: Lenvatinib 100 mg/kg po qd × 28.

Read-outs that look alike come from different tables or passages of the source.

Take `COc1cc2nccc(Oc3ccc(NC(=O)NC4CC4)c(Cl)c3)c2cc1C(N)=O` [Lenvatinib, 4-[3-Chloro-4-(cyclopropylaminocarbonyl)aminophenoxy]-7-methoxy-6-quinolinecarboxamide]: in test [1] (setting [4]), the “% TGD” value was determined as 168%, the “T − C” value was determined as 24.0 days and the “Median TTE” value is recorded as 38.3 days. Besides, in test [1] (setting [5]), the “Regressions CR” value is on record as 0, the “Regressions PR” value is recorded as 1 and the “Regressions TFS” value came out at 0. Further, in test [1] (setting [6]), the “% TGD” value is recorded as 162%, the “T − C” value was found to be 23.1 days and the “Median TTE” value amounted to 37.4 days. For the same molecule, in test [1] (setting [7]), the “Regressions CR” value is given as 0, the “Regressions PR” value turned out to be 0 and the “Regressions TFS” value was 0. Besides, in test [1] (setting [8]), the “% TGD” value amounted to 164%, the “T − C” value is recorded as 23.4 days and the “Median TTE” value came to 37.7 days. Moreover, in test [1] (setting [9]), the “Regressions CR” value was 0, the “Regressions PR” value came to 0 and the “Regressions TFS” value is recorded as 0. Moreover, the macrophages result in test [2] is “decrease in macrophages”.

B1: fusion protein of SEQ ID NO: 1: circularly permuted (cp) IL-2 variant fused to the extracellular domain of the IL-2Rα portion of the IL-2 receptor (protein)
chain: SKNFHLRPRDLISNINVIVLELKGSETTFMCEYADETATIVEFLNRWITFSQSIISTLTGGSSSTKKTQLQLEHLLLDLQMILNGINNYKNPKLTRMLTFKFYMPKKATELKHLQCLEEELKPLEEVLNLAQGSGGGSELCDDDPPEIPHATFKAMAYKEGTMLNCECKRGFRRIKSGSLYMLCTGNSSHSSWDNQCQCTSSATRNTTKQVTPQPEEQKERKTTEMQSPMQPVDQASLPGHCREPPPWENEATERIYHFVVGQMVYYQCVQGYRALHRGPAESVCKMTHGKTRWTQPQLICTG
modifications: Human cpIL-2IL-2R-alpha
notes: circularly permuted (cp) IL-2 variant fused to the extracellular domain of the IL-2Rα portion of the IL-2 receptor
For B1, the “expansion of CD8+T cells and NK cells versus Tregs” value in test [3] is “activates expansion of CD8+T cells and NK cells in a dose dependent manner in the absence of dose dependent activation of Tregs”.

Values taken from patent US11834483B2, “Immunostimulatory agents in combination with angiogenesis inhibitors” (Alkermes Pharma Ireland Limited, priority 2020, dated 2023).
